From US20230037905A1 (Vyne Therapeutics Inc., priority 2019, published 2023)
Where a name gives a salt, the structure may show the parent alone. Each block holds one compound with its values, some of them ahead of it.

Columns and labels:
in vivo = assay: in vivo; parameters: species or system Minipigs; details: minipig, Tofacitinib concentration
Experimental: Minipigs are treated topically on 10% body surface area, once daily for 14 days with the tested formulation.

[1] = molecular target: S1P receptors (S1P1 and S1P3-5); details: four of the five S1P receptors (S1P1 and S1P3-5); read-out: affinity; cited from earlier work
[2] = test system: Reconstructed Human Epidermis (RHE) tissues exposed to Th2 cytokines IL-4, IL-13, IL-25; assay: Reconstructed Human Epidermis (RHE) Th2 AD model (StratiCELL); type: cell-based; details: 48 h
Experimental: Reconstructed Human Epidermis (RHE) tissues are produced and grown by StratiCELL. To generate the morphological and functional aspects of AD, RHE samples are exposed to Th2 cytokines IL-4, IL-13, IL-25. Th-2 cytokines are applied for 48 h in the culture medium of epidermis. Test formulations are applied simultaneously with the cytokines on the stratum corneum of the epidermis during the same 48 h. The tissue morphology is assessed by histology and hemalum/eosin (H/E) staining—quantification of a fluorescent dye (biotin) diffusion through the epidermis in order to evaluate the barrier function.

[3] = Chemical stability of formulations (HPLC); type: physicochemical
Experimental: Where another active agent such as fingolimod is present in the formulations the samples are analysed for that active agent and its degradation products by HPLC. […] The gradient elution is employed.

[4] = Solubility test (saturated solutions, HPLC); type: physicochemical
Experimental: An additional analysis is performed after 48 hours of agitation to confirm the determined saturated concentration.

[5] = Compatibility test of tofacitinib citrate with excipients at 60° C.; type: physicochemical; parameters: TOF assay: unit not given here; details: 10 weeks at 60° C.
Experimental: The mixtures are tightly closed and exposed to 60° C. protected from light.

[6] = Stability of Tofacitinib Citrate solution in 50 mM citrate buffer of different pH at 60° C.; type: physicochemical; parameters: unit not given here
Excerpt: In one or more embodiments the pH, is about 4, about 4.1, about 4.2, about 4.3, about 4.4, about 4.5, about 4.6, about 4.7, about 4.8, about 4.9 or about 5.

[7] = as above; type: physicochemical; parameters: unit not given here; remark: listed apart in the source
[8] = in Water + Carboxymethylcellulose
[9] = in Water + Glyceryl Monosteatate

- concentration at 4 h (in vivo): 1.48 ng/mL
- concentration at 8 h (in vivo): 1.32 ng/mL
- concentration at 24 h (in vivo): 0.688 ng/mL
Compound: C[C@@H]1CCN(C(=O)CC#N)C[C@@H]1N(C)c1ncnc2[nH]ccc12 [Tofacitinib]

Compound: CCCCCCCCc1ccc(CC[C@](N)(CO)COP(=O)(O)O)cc1 [fingolimod-phosphate]
- Kd [1]: 0.3 to 3.1 nM

Compound: CCCCCCCCc1ccc(CCC(N)(CO)CO)cc1 [Fingolimod, 2-amino-2-[2-(4-octylphenyl)ethyl]propane-1,3-diol]
- barrier function (biotin immunofluorescence) ([2]; 0.001% w/w): reduced the Th2-induced barrier alteration
- tissue morphology (histology, H/E staining) ([2]; 0.001% w/w): reduced the Th2-induced barrier alteration
- barrier function (biotin immunofluorescence) ([2]; 0.01% w/w): reduced the Th2-induced barrier alteration
- tissue morphology (histology, H/E staining) ([2]; 0.01% w/w): reduced the Th2-induced barrier alteration
- tissue morphology (histology, H/E staining) ([2]; 0.1% w/w): increased fragilization was observed with junction/adhesion loss and disorganization of cell layers
- barrier function (biotin immunofluorescence) ([2]; 0.1%): Increased barrier alteration
- tissue morphology (histology, H/E staining) ([2]; 1% w/w): increased fragilization was observed with junction/adhesion loss and disorganization of cell layers
- barrier function (biotin immunofluorescence) ([2]; 1%): Increased barrier alteration

Compound: CCCCCCCCc1ccc(CCC(N)(CO)CO)cc1 [fingolimod hydrochloride, Fingolimod hydrochloride]
- chemical stability of active agent in formulation [3]: stable at 5° C., 40 °C and 50 °C

- Solubility of TOF Citrate ([4]; in 0.02% HCl): 4.06 mg/g
- Solubility of TOF Citrate ([4]; in 0.05% NaOH (degraded)): not detected
- Solubility of TOF Citrate ([4]; in Benzyl Alcohol): 0.81 mg/g
- Solubility of TOF Citrate ([4]; in DMSO): >150 mg/g
- solubilized tofacitinib citrate concentration ([4]; in DMSO): > 15%
- Solubility of TOF Citrate ([4]; in Diisopropyl adipate): 0.02 mg/g
- Solubility of TOF Citrate ([4]; in Dimethyl isosorbate): 1.27 mg/g
- Solubility of TOF Citrate ([4]; in Ethanol): 0.61 mg/g
- Solubility of TOF Citrate ([4]; in Glycerin): 0.97 mg/g
- Solubility of TOF Citrate ([4]; in Hexylene Glycol): 0.25 mg/g
- Solubility of TOF Citrate ([4]; in Isopropyl Alcohol): 0.24 mg/g
- Solubility of TOF Citrate ([4]; in Isopropyl myristate): <0.02 mg/g
- Solubility of TOF Citrate ([4]; in MCT oil (Caprylic/capric triglycerides)): <0.01 mg/g
- Solubility of TOF Citrate ([4]; in Oleyl alcohol): 0.09 mg/g
- Solubility of TOF Citrate ([4]; in PPG-11 Stearyl ether): 0.02 mg/g
- Solubility of TOF Citrate ([4]; in Propylene Glycol): 1.70 mg/g
- Solubility of TOF Citrate ([4]; in Transcutol): 2.01 mg/g
- Solubility of TOF Citrate ([4]; in Water): 2.77 mg/g
- Solubility of TOF Citrate ([4]; in polyethylene glycol 200): 5.16 mg/g
- solubilized tofacitinib citrate concentration ([4]; in polyethylene glycol 200): about 0.5%
- Solubility of TOF Citrate ([4]; in polyethylene glycol 400): 6.96 mg/g
- solubilized tofacitinib citrate concentration ([4]; in polyethylene glycol 400): about 0.7%
- Deg. products ([5]; in MCT oil): 0.09
- TOF assay ([5]; in MCT oil): 108.4
- Deg. products [5, 8]: 9.33
- TOF assay [5, 8]: 48.1
- Deg. products ([5]; in Water + Ceteareth 20): 4.57
- TOF assay ([5]; in Water + Ceteareth 20): 67.7
- Deg. products ([5]; in Water + Glycerin): 10.16
- TOF assay ([5]; in Water + Glycerin): 63.9
- Deg. products [5, 9]: 2.62
- TOF assay [5, 9]: 75.6
- Deg. products ([5]; in Water + Hypermellose K100M): 4.64
- TOF assay ([5]; in Water + Hypermellose K100M): 14.2
- Deg. products ([5]; in Water + Methyl Paraben): 4.14
- TOF assay ([5]; in Water + Methyl Paraben): 81.6
- Deg. products ([5]; in Water + Propyl Paraben): 3.01
- TOF assay ([5]; in Water + Propyl Paraben): 93.0
- Deg. products ([5]; in Water + Stearic Acid): 3.64
- TOF assay ([5]; in Water + Stearic Acid): 79.4
- Deg. products ([5]; in Water + Stearyl Alcohol): 2.21
- TOF assay ([5]; in Water + Stearyl Alcohol): 73.1
- Deg. products ([5]; in Water + Xanthan Gum): 28.23
- TOF assay ([5]; in Water + Xanthan Gum): 7.7
- Deg. products ([5]; in Water): 1.90
- TOF assay ([5]; in Water): 106.7
- TOF assay ([6]; pH 4, 2 w): 106.31
- TOF assay ([6]; pH 4.5, 1 w): 108.64
- TOF assay ([6]; pH 4.5, 2 w): 99.84
- RRT 1.42 (impurity) ([6]; pH 5, 2 w): 0.14
- TOF assay ([6]; pH 5, 2 w): 101.02
- RRT 0.48 (impurity) ([7]; pH 3, 1 w): 0.10
- RRT 0.89 (impurity) ([7]; pH 3, 1 w): 0.10
- TOF assay ([7]; pH 3, 1 w): 93.92
- RRT 0.40 (impurity) ([7]; pH 3, 2 w): 0.09
- RRT 0.48 (impurity) ([7]; pH 3, 2 w): 0.11
- RRT 0.89 (impurity) ([7]; pH 3, 2 w): 0.09
- RRT 1.42 (impurity) ([7]; pH 3, 2 w): 0.09
- TOF assay ([7]; pH 3, 2 w): 100.09
- Imp B ([7]; pH 4, 1 w): 0.09
- TOF assay ([7]; pH 4, 1 w): 102.57
- RRT 1.42 (impurity) ([7]; pH 5, 1 w): 0.14
- RRT 0.80 (impurity) ([7]; pH 5, 2 w): 0.08
- TOF assay ([7]; pH 6, 1 w): 99.67
- RRT 0.89 (impurity) ([7]; pH 6, 2 w): 0.09
- TOF assay ([7]; pH 6, 2 w): 100.09
Compound: C[C@@H]1CCN(C(=O)CC#N)C[C@@H]1N(C)c1ncnc2[nH]ccc12 [Tofacitinib citrate]
